Reference: patent US7405317B2, “Phosphate-bearing prodrugs of sulfonyl hydrazines as hypoxia-selective antineoplastic agents” (priority 2004, dated 2008)

Experiments:
[1] = test system: H460 human lung carcinoma; format: in vivo, mice; conditions: H460/Nude Mice; dose VNP40541 80-140 mpk, VNP40551 40-80 mpk
Method: (§1) The anti-tumor effects of aforementioned prodrugs are evaluated in both solid and liquid tumor models, including the B16-F10 murine melanoma, HTB177 human lung carcinoma models, DLD1 human colon carcinoma, EMT-6 murine mammary gland carcinoma, L1210 murine leukemia, lymphoma, prostate cancer, pancreatic cancer, and head-and-neck cancer. The prodrugs are given intravenously, orally, or intraperitoneally at doses from 10 mg/kg to 2000 mg/kg; they are give at different dosing schedules such as 4 times daily, once daily, or once every several days for up to 60 doses. Testing tumor cells were implanted subcutaneously into mice, which were randomized into groups immediately after tumor cell implantation (Day 0). Mice were injected intraperitoneally (ip) with either a bolus injection of 0.1 mL PBS or drug. The treatment was carried out in a designed dosing schedule. Tumor measurement in three dimensions was determined once a week with the formula L×H×W/2, where L, H, and W represent length, height, and width, respectively.
(§2) Efficacy of KS119 was studied in murine tumor model and human xenograft models. EMT-6 murine mammary carcinoma cells (3×10^5 cells/mouse) were implanted subcutaneously into Balb/c mice. H460 human lung carcinoma cells, HT29 human colon carcinoma cells and SHP77 human lung carcinoma cells were established as solid xenografts in nu/nu CD-1 mice and Scid/Beige mice with 7×10^7 cells/mouse, respectively. After implantation, tumors were allowed to grow to a size of 150 to 200 mm^3 before starting treatment with KS119. KS119 was formulated in a solvent containing polyethylene glycol 300 (PEG), ethyl alcohol, citric acid, and ascorbic acid.
(§3) Efficacies of KS119W and KS119 were compared with equivalence molar doses in EMT-6 tumor and H460 tumor models. KS119W was formulated with 0.25M sodium bicarbonate solution. The treatment was started when tumors researched 150 to 200 mm^3, and lasted up to 2 weeks. KS119 at doses of 80 and 100 mg/kg and KS119W at doses of 97.6 and 121.3 mg/kg were daily administrated into mice via ip injection. […] To assess the toxicity of treatment, body weight and peripheral blood cell count were monitored after treatment.
(§4) Combined therapy of KS119W with cytoxan (CTX) was evaluated by using KS119W at dose below the MTD in combination with nontoxic dose of CTX against EMT-6 murine mammary carcinoma and H460 human lung carcinoma in CD-1 nude mice. The tumors were allowed to grow to a size of approximately 200 mm^3. In H460 tumor model, the animals received either with 4 doses 180 mg/kg and 1 dose 240 mg/kg of KS119 or CTX at dose of 100 mg/kg per dose per animal, ip injecting the drugs on 15, 22, 27, 34 and 43 days after the tumor implantation. In the combination studies, CTX was given two hours after dosing KS119W.

[2] = test system: EMT-6 murine mammary carcinoma; format: in vivo, mice; conditions: EMT6/BLAB-c Mice; dose VNP40541 85-115 mpk, VNP40551 55-85 mpk
Method: as §1, §2, §3, §4

Compound: C[C@@H](OC(=O)N(N(CCCl)S(C)(=O)=O)S(C)(=O)=O)c1ccc([N+](=O)[O-])c(OP(=O)(O)O)c1 [VNP40541]
- Inhibition (%) [1]: 52-80%
- Inhibition (%) [2]: 58-69%
